Read-outs that look alike come from different tables or passages of the source.
Key:
Type in all cases: in vivo
rice (Oryza sativa) = assay: Test B flooded paddy test; details: for Rice plant response rating: Flood, 31 g ai/ha, scale 0 to 100 (0 no effect, 100 complete control)
How it was run: (§1)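 Plants were grown to the 2-leaf stage, then pots were flooded to 3 cm above the soil and compounds were applied directly into the paddy water. That depth was held throughout. After 13 to 15 days in a greenhouse, injury was visually rated against controls on a 0–100 scale.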

[1] = system: ducksalad (Heteranthera limosa); assay: Test B flooded paddy test; details: for Ducksalad plant response rating: Flood, 31 g ai/ha, scale 0 to 100 (0 no effect, 100 complete control)
How it was run: as §1

[2] = system: umbrella sedge (Cyperus difformis); assay: Test B flooded paddy test; details: for Sedge, Umbrella plant response rating: Flood, 31 g ai/ha, scale 0 to 100 (0 no effect, 100 complete control)
How it was run: as §1

[3] = system: barnyardgrass (Echinochloa crus-galli); assay: Test B flooded paddy test; details: for Barnyardgrass plant response rating: Flood, 31 g ai/ha, scale 0 to 100 (0 no effect, 100 complete control)
How it was run: as §1

[4] = system: barnyardgrass (Echinochloa crus-galli); assay: Test A pre-/postemergence plant response; details: for pest or weed control at 125 g/ha / pest or weed control at 500 g/ha: Echinochloa crus-galli, 240 h, read-out: Plant response rating, Barnyardgrass
How it was run: (§2)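 Plants grown from seed in a loam soil and sand mix received test compounds both as a preemergence soil spray and, at the same time, as a postemergence spray at the one- to two-leaf stage. Injury was judged visually against untreated controls roughly ten days later, 0 meaning no effect and 100 complete control.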

[5] = system: pigweed (Amaranthus retroflexus); assay: Test A pre-/postemergence plant response; details: for pest or weed control at 125 g/ha / pest or weed control at 500 g/ha: Amaranthus retroflexus, 240 h, read-out: Plant response rating, Pigweed
How it was run: as §2

corn (Zea mays) = assay: Test A pre-/postemergence plant response; details: for Corn plant response rating (crop injury, 0 = no effect, 100 = complete kill) at 125 g/ha / Corn plant response rating (crop injury, 0 = no effect, 100 = complete kill) at 500 g/ha: Zea mays, 240 h
How it was run: as §2

[6] = system: giant foxtail (Setaria faberii); assay: Test A pre-/postemergence plant response; details: for pest or weed control at 125 g/ha / pest or weed control at 500 g/ha: Setaria faberi, 240 h, read-out: Plant response rating, Foxtail, Giant
How it was run: as §2

[7] = 250 g ai/ha, flooded paddy test, visual rating on 0 to 100 scale (0 no effect, 100 complete control) after 13 to 15 days
[8] = Flood (flooded paddy test), 62 g ai/ha, scale of 0 to 100 where 0 is no effect and 100 is complete control, 13 to 15 days
[9] = Flood (flooded paddy test), 125 g ai/ha, scale 0 to 100, 0 is no effect, 100 is complete control, 13 to 15 days
[10] = Postemergence, 125 g ai/ha, 0 to 100 scale where 0 is no effect and 100 is complete control
[11] = Postemergence, 500 g ai/ha, 0 to 100 scale, 0 = no effect, 100 = complete control, approx. ten days
[12] = Preemergence, 125 g ai/ha, 0 to 100 scale, 0 = no effect, 100 = complete control
[13] = Preemergence, 500 g ai/ha, visual injury, 0 to 100 scale (0 no effect, 100 complete control), approx. ten days
[14] = post-emergence, Postemergence, 125 g ai/ha, 0 to 100 scale where 0 is no effect and 100 is complete control
[15] = post-emergence, Postemergence, 500 g ai/ha, 0 to 100 scale, 0 = no effect, 100 = complete control, approx. ten days
[16] = pre-emergence, Preemergence, 125 g ai/ha, 0 to 100 scale, 0 = no effect, 100 = complete control
[17] = pre-emergence, Preemergence, 500 g ai/ha, visual injury, 0 to 100 scale (0 no effect, 100 complete control), approx. ten days

For `COCCCn1c(-c2cccc(F)c2)ncc(C(=O)C2=C(O)CCCC2=O)c1=O` [Compound 126], the “Plant response rating, Flood, Rice” value (rice (Oryza sativa); [7]) was 15, the “Plant response rating, Rice” value (rice (Oryza sativa); [8]) was 0 and the “Plant response rating, Rice” value (rice (Oryza sativa); [9]) was 0. For the same compound, the “Rice plant response rating” value (rice (Oryza sativa)) was 0, the “Plant response rating, Flood, Ducksalad” value [1, 7] was 85 and the “Plant response rating, Ducksalad” value [1, 8] was 80. The “Plant response rating, Ducksalad” value [1, 9] was 85, the “Ducksalad plant response rating” value [1] was 75 and the “Plant response rating, Flood, Sedge, Umbrella” value [2, 7] was 85. The “Plant response rating, Sedge, Umbrella” value [2, 8] was 70, the “Plant response rating, Sedge, Umbrella” value [2, 9] was 80 and the “Sedge, Umbrella plant response rating” value [2] was 50. The “Plant response rating, Flood, Barnyardgrass” value [3, 7] was 75, the “Plant response rating, Barnyardgrass” value [3, 8] was 45 and the “Plant response rating, Barnyardgrass” value [3, 9] was 60. For the same compound, the “Barnyardgrass plant response rating” value [3] was 20, the “Plant response rating, Barnyardgrass” value [4, 10] was 80 and the “Plant response rating, Barnyardgrass” value [4, 11] was 90. The “Plant response rating, Barnyardgrass” value [4, 12] was 70, the “Plant response rating, Barnyardgrass” value [4, 13] was 100 and the “Plant response rating, Pigweed” value [5, 10] was 90. For the same compound, the “Plant response rating, Pigweed” value [5, 11] was 100, the “Plant response rating, Pigweed” value [5, 12] was 100 and the “Plant response rating, Pigweed” value [5, 13] was 100. The “Plant response rating, Corn” value (corn (Zea mays); [10]) was 10, the “Plant response rating, Corn” value (corn (Zea mays); [11]) was 60 and the “Plant response rating, Corn” value (corn (Zea mays); [12]) was 0. The “Plant response rating, Corn” value (corn (Zea mays); [13]) was 20, the “Plant response rating, Foxtail, Giant” value [6, 10] was 70 and the “Plant response rating, Foxtail, Giant” value [6, 11] was 80. For the same compound, the “Plant response rating, Foxtail, Giant” value [6, 12] was 60 and the “Plant response rating, Foxtail, Giant” value [6, 13] was 90.

In the case of `CCCn1c(-c2cccc(F)c2)ncc(C(=O)C2=C(O)CCCC2=O)c1=O` [Compound 127], the “Plant response rating, Flood, Rice” value (rice (Oryza sativa); [7]) is reported as 35, the “Plant response rating, Rice” value (rice (Oryza sativa); [8]) is reported as 15 and the “Plant response rating, Rice” value (rice (Oryza sativa); [9]) is reported as 25. For the same compound, the “Rice plant response rating” value (rice (Oryza sativa)) was 0, the “Plant response rating, Flood, Ducksalad” value [1, 7] was 80 and the “Plant response rating, Ducksalad” value [1, 8] was 30. The “Plant response rating, Ducksalad” value [1, 9] was 60, the “Ducksalad plant response rating” value [1] was 0 and the “Plant response rating, Flood, Sedge, Umbrella” value [2, 7] was 80. For the same compound, the “Plant response rating, Sedge, Umbrella” value [2, 8] was 20, the “Plant response rating, Sedge, Umbrella” value [2, 9] was 60 and the “Sedge, Umbrella plant response rating” value [2] was 0. For the same compound, the “Plant response rating, Flood, Barnyardgrass” value [3, 7] was 75, the “Plant response rating, Barnyardgrass” value [3, 8] was 40 and the “Plant response rating, Barnyardgrass” value [3, 9] was 65. For the same compound, the “Barnyardgrass plant response rating” value [3] was 0, the “Plant response rating, Barnyardgrass” value [4, 10] was 80 and the “Plant response rating, Barnyardgrass” value [4, 11] was 90. For the same compound, the “Plant response rating, Barnyardgrass” value [4, 12] was 40, the “Plant response rating, Barnyardgrass” value [4, 13] was 100 and the “Plant response rating, Pigweed” value [5, 10] was 90. The “Plant response rating, Pigweed” value [5, 11] was 100, the “Plant response rating, Pigweed” value [5, 12] was 100 and the “Plant response rating, Pigweed” value [5, 13] was 100. For the same compound, the “Plant response rating, Corn” value (corn (Zea mays); [10]) was 20, the “Plant response rating, Corn” value (corn (Zea mays); [11]) was 20 and the “Plant response rating, Corn” value (corn (Zea mays); [12]) was 0. For the same compound, the “Plant response rating, Corn” value (corn (Zea mays); [13]) was 0, the “Plant response rating, Foxtail, Giant” value [6, 10] was 70 and the “Plant response rating, Foxtail, Giant” value [6, 11] was 80. The “Plant response rating, Foxtail, Giant” value [6, 12] was 50 and the “Plant response rating, Foxtail, Giant” value [6, 13] was 90.

`O=C1CCCC(O)=C1C(=O)c1cnc(-c2ccccc2)n(C2CCCCC2)c1=O` [Compound 128, 3-cyclohexyl-5-[(2-hydroxy-6-oxo-1-cyclohexen-1-yl)carbonyl]-2-phenyl-4(3H)-pyrimidinone] was tested, and the “Rice plant response rating” value (rice (Oryza sativa)) was 0, the plant injury at 250 g/ha (rice (Oryza sativa); Oryza sativa, 250 g ai/ha, flooded paddy test, visual rating on 0 to 100 scale (0 no effect, 100 complete control) after 13 to 15 days, read-out: Plant response rating, Flood, Rice) was 35% and the plant injury at 62 g/ha (rice (Oryza sativa); Oryza sativa, Flood (flooded paddy test), 62 g ai/ha, scale of 0 to 100 where 0 is no effect and 100 is complete control, 13 to 15 days, read-out: Plant response rating, Rice) was 0%. The plant injury at 125 g/ha (rice (Oryza sativa); Oryza sativa, Flood (flooded paddy test), 125 g ai/ha, scale 0 to 100, 0 is no effect, 100 is complete control, 13 to 15 days, read-out: Plant response rating, Rice) was 10%, the “Ducksalad plant response rating” value [1] was 90 and the pest or weed control at 250 g/ha ([1]; Heteranthera limosa, 360 h, 250 g ai/ha, flooded paddy test, visual rating on 0 to 100 scale (0 no effect, 100 complete control) after 13 to 15 days, read-out: Plant response rating, Flood, Ducksalad) was 100%. The pest or weed control at 62 g/ha ([1]; Heteranthera limosa, 360 h, Flood (flooded paddy test), 62 g ai/ha, scale of 0 to 100 where 0 is no effect and 100 is complete control, 13 to 15 days, read-out: Plant response rating, Ducksalad) was 95%, the pest or weed control at 125 g/ha ([1]; Heteranthera limosa, 360 h, Flood (flooded paddy test), 125 g ai/ha, scale 0 to 100, 0 is no effect, 100 is complete control, 13 to 15 days, read-out: Plant response rating, Ducksalad) was 95% and the pest or weed control at 250 g/ha ([2]; Cyperus difformis, 360 h, 250 g ai/ha, flooded paddy test, visual rating on 0 to 100 scale (0 no effect, 100 complete control) after 13 to 15 days, read-out: Plant response rating, Flood, Sedge, Umbrella) was 75%. For the same compound, the pest or weed control at 62 g/ha ([2]; Cyperus difformis, 360 h, Flood (flooded paddy test), 62 g ai/ha, scale of 0 to 100 where 0 is no effect and 100 is complete control, 13 to 15 days, read-out: Plant response rating, Sedge, Umbrella) was 30%, the pest or weed control at 125 g/ha ([2]; Cyperus difformis, 360 h, Flood (flooded paddy test), 125 g ai/ha, scale 0 to 100, 0 is no effect, 100 is complete control, 13 to 15 days, read-out: Plant response rating, Sedge, Umbrella) was 60% and the “Sedge, Umbrella plant response rating” value [2] was 0. The pest or weed control at 250 g/ha ([3]; Echinochloa crus-galli, 360 h, 250 g ai/ha, flooded paddy test, visual rating on 0 to 100 scale (0 no effect, 100 complete control) after 13 to 15 days, read-out: Plant response rating, Flood, Barnyardgrass) was 40%, the pest or weed control at 62 g/ha ([3]; Echinochloa crus-galli, 360 h, Flood (flooded paddy test), 62 g ai/ha, scale of 0 to 100 where 0 is no effect and 100 is complete control, 13 to 15 days, read-out: Plant response rating, Barnyardgrass) was 10% and the pest or weed control at 125 g/ha ([3]; Echinochloa crus-galli, 360 h, Flood (flooded paddy test), 125 g ai/ha, scale 0 to 100, 0 is no effect, 100 is complete control, 13 to 15 days, read-out: Plant response rating, Barnyardgrass) was 15%. For the same compound, the “Barnyardgrass plant response rating” value [3] was 0, the pest or weed control at 125 g/ha [4, 14] was 100% and the pest or weed control at 500 g/ha [4, 15] was 100%. The pest or weed control at 125 g/ha [4, 16] was 10%, the pest or weed control at 500 g/ha [4, 17] was 100% and the pest or weed control at 125 g/ha [5, 14] was 100%. For the same compound, the pest or weed control at 500 g/ha [5, 15] was 100%, the pest or weed control at 125 g/ha [5, 16] was 80% and the pest or weed control at 500 g/ha [5, 17] was 100%. For the same compound, the Corn plant response rating (crop injury, 0 = no effect, 100 = complete kill) at 125 g/ha (corn (Zea mays); [14]) was 20%, the Corn plant response rating (crop injury, 0 = no effect, 100 = complete kill) at 500 g/ha (corn (Zea mays); [15]) was 60% and the Corn plant response rating (crop injury, 0 = no effect, 100 = complete kill) at 125 g/ha (corn (Zea mays); [16]) was 0%. The Corn plant response rating (crop injury, 0 = no effect, 100 = complete kill) at 500 g/ha (corn (Zea mays); [17]) was 0%, the pest or weed control at 125 g/ha [6, 14] was 90% and the pest or weed control at 500 g/ha [6, 15] was 90%. The pest or weed control at 125 g/ha [6, 16] was 60% and the pest or weed control at 500 g/ha [6, 17] was 90%.
